Values after ≈ are worked out from the molar mass of the structure shown. “Also recorded” adds a separate entry of the source. Read-outs that look alike come from different tables or passages of the source.
Tests used:
[1] = test system: S. saprophyticus (ATCC 15305); assay: MIC, broth microdilution; format: cell-based; settings: Staphylococcus saprophyticus, ATCC15305
[2] = test system: S. epidermidis (ATCC 12228); assay: MIC, broth microdilution; format: cell-based; settings: Staphylococcus epidermidis, ATCC12228
MRSA (SCCmec VT) = assay: MIC, broth microdilution; format: cell-based, methicillin-resistant Staphylococcus aureus
[3] = test system: S. haemolyticus (ATCC 29970); assay: MIC, broth microdilution; format: cell-based; settings: Staphylococcus haemolyticus, ATCC29970
MRSA (ATCC 33592) = assay: MIC, broth microdilution; format: cell-based, methicillin-resistant Staphylococcus aureus; settings: Staphylococcus aureus; read-out: MIC MRSA (ATCC 33592)
MRSA (ATCC 49476) = assay: MIC, broth microdilution; format: cell-based, methicillin-resistant Staphylococcus aureus; settings: Staphylococcus aureus
[4] = test system: HT-29 human colon adenocarcinoma cells; assay: Antiproliferative assay (MTT); format: cell-based; settings: for IC50: Homo sapiens, HT-29, 24-h exposure, 10% FBS-supplemented RPMI 1640, MTT; for Selectivity ratio: IC50 (HT-29) / MIC against S. aureus
Experimental: As celecoxib has been reported to be cytotoxic to cancer cells, the growth inhibitory activities of celecoxib and selected derivatives were assessed in. HT-29 human colon adenocarcinoma cells after 24-h exposure in 10% FBS-supplemented RPMI 1640 medium.
Antiproliferative assay. The cytotoxicity of individual test agents in HT-29 human colon adenocarcinoma cells was evaluated by using the 3-(4,5-dimethylthiazol-2-yl)-2,5-diphenyltetrazolium (MTT) assay. Briefly, HT-29 cells were seeded into 96-well plates at 1×10^4 cells/well (with a minimum of 6 wells per test condition) in RPMI 1640 medium supplemented with 10% FBS and 10 μg/ml of gentamicin. After overnight incubation at 37° C. under 5% CO2, the medium from each well was removed and replenished with fresh aliquots of the same medium containing various concentrations of test agents dissolved in DMSO (final concentration, 0.1%). Control cells were treated with DMSO alone at a concentration equal to that in drug-treated cells. After 24 h of drug exposure, the medium was removed and replaced by 100 μl of 0.5 mg/ml MTT in 10% FBS-containing medium, and the cells were incubated in the CO2 incubator at 37° C. for 2 h. Subsequently, medium was removed from each well, and the reduced MTT dye was dissolved with 100 μl of DMSO per well. Absorbance at 570 nm was measured with a plate reader. The 50% inhibitory concentration (IC50) of each drug was determined from dose-response curves by using CalcuSyn software (Biosoft, Cambridge, United Kingdom).

S. hominis (ATCC 27844) = assay: MIC, broth microdilution; format: cell-based; settings: Staphylococcus hominis, ATCC27844
S. aureus = assay: CFU of S. aureus after exposure to celecoxib at the MIC; format: cell-based; settings: at the MIC of 32 μg/ml, after 24 h
Source text: The inventors examined the suppressive effect of celecoxib on the growth of S. aureus (ATCC 29213), S. epidermidis (ATCC 35984), and two different strains of MRSA (ATCC 33592 and SCCmec VT), as shown in Table IX.

[5] = test system: S. epidermidis (ATCC 35984); assay: MIC, broth microdilution; format: cell-based; settings: Staphylococcus epidermidis
S. aureus (ATCC 29213) = assay: MIC, broth microdilution; format: cell-based; settings: Staphylococcus aureus
[6] = test system: S. lugdunesis (NTUH isolate); assay: MIC, broth microdilution; format: cell-based; settings: read-out: MIC S. lugdunesis (NTUH isolate)
MRSA ATCC 33592 = assay: Time-kill assay; format: cell-based, methicillin-resistant Staphylococcus aureus; settings: for reduction in CFU: after 24-h exposure to 8 times the MIC, CAMHB
Experimental: Numbers of viable bacteria in the broth after each exposure period were enumerated by CFU assay, and the results expressed as CFU/ml. Points indicate means, and bars indicate SD (n=3). The dashed line represents 99.9% cell killing. Ctl, control.
Otherwise, it is considered bacteriostatic. Pankey, G. A.; Sabath, L. D. Clin. Infect. Dis., 38, 864-870 (2004). To category these novel agents, represented by compounds 9, 36, and 46, in this regard, their time-killing kinetics were assessed in MRSA ATCC 33592 over a 24-h treatment period. Overnight-grown bacteria were inoculated in cation-adjusted Muller Hinton broth (CAMHB) at a concentration of 5×10^5 CFU/ml followed by exposure to individual compounds at 2- to 8-fold their respective MIC values. […] Accordingly, compounds 36 and 46 were classified as bactericidal. As the killing was time-dependent, the antibacterial effect of these agents was not caused by the disruption of membrane integrity.
Time-kill assay. To analyze the kinetics of bacterial cell killing, MRSA ATCC 33592 cells at a density of 5×10^5 CFU/ml were treated with test agents at 2-, 4-, and 8-fold MICs in triplicate in 24-well plates. Bacterial survival in medium containing DMSO at a concentration equal to that used for drug-treated bacteria served as control. At different times after the start of drug exposure, a 100 μl aliquot of the bacterial suspension was taken from each well and serially diluted with PBS. The diluted samples were spread onto LB agar plates followed by incubation at 37° C. for 16 h. The bacterial colonies on each plate were enumerated, and the number of viable bacteria in each well was expressed as CFU per milliliter.

S. aureus (ATCC 12598) = assay: MIC, broth microdilution; format: cell-based; settings: Staphylococcus aureus, ATCC12598
three strains of MRSA = assay: MIC, text statements on the three strains of MRSA together; format: cell-based, methicillin-resistant Staphylococcus aureus; settings: Staphylococcus aureus, read-out: MIC against MRSA
Experimental: Antibacterial assays. The MIC of each agent was determined following the guidelines for the broth microdilution method recommended by the Clinical and Laboratory Standards Institute. Wikler, M. A. Performance Standards for Antimicrobial Susceptibility Testing; Eighteenth Informational Supplement Clinical and Laboratory Standards Institute: 2008. Briefly, bacteria grown overnight on Luria Bertani (LB) agar plates were suspended in phosphate-buffered saline (PBS) to an O.D. of 1.0 at 600 nm, which was equivalent to 2×10^9 CFU/ml, and then diluted in CAMHB to a final concentration of 5×10^5 CFU/ml. […] The MIC of each agent was defined as the lowest concentration at which no growth of bacteria was observed.

MRSA 33592 = assay: Survival of MRSA-infected mice; format: in vivo, C57BL/6 mice; settings: once, 1 h postinfection, 5×10^7 CFU i.p.
Experimental: (A) Effect of intraperitoneal administration of Cpd-36 and Cpd-46 on survival of methicillin-resistant Staphylococcus aureus-infected mice. C57BL/6 mice were inoculated intraperitoneally with 5×10^7 CFU of MRSA 33592. At 1 h postinfection, mice were treated intraperitoneally once with vehicle, Cpd-36 or Cpd-46 at 30 mg/kg (B) Effect of oral administration of Cpd-46 on survival of MRSA 33592-infected mice. One hour after intraperitoneal inoculation with 5×10^7 CFU of MRSA 33592, C57BL/6 mice were treated orally once with Cpd-46 at 100 mg/kg or vehicle. Survival data are presented as Kaplan-Meier survival curves for each treatment group (n=5). The difference in the mean survival times of the groups was statistically significant at P values of 0.05.

[7] = Staphylococcus aureus, MRSA, read-out: MIC MRSA (SCCmec VT)
[8] = Table XIII, S. aureus (SSCmecVT)
[9] = ATCC35984, 24 h, CAMHB, 24 h, 37° C., read-out: MIC S. epidermidis (ATCC 35984)
[10] = ATCC29213, 24 h, CAMHB, 24 h, 37° C., read-out: MIC S. aureus (ATCC 29213)

SMILES	MIC [2] [µg/mL]	MIC (MRSA (SCCmec VT); [7]) [µg/mL]	MIC (MRSA (ATCC 33592)) [µg/mL]	MIC (MRSA (ATCC 49476)) [µg/mL]	IC50 [4] [µg/mL]	MIC [5, 9] [µg/mL]	MIC (S. aureus (ATCC 29213); [10]) [µg/mL]	MIC (MRSA (SCCmec VT); [8]) [µg/mL]	Selectivity ratio [4]	reduction in CFU (MRSA ATCC 33592) [%]	other results
NS(=O)(=O)Nc1ccc(-n2nc(C(F)(F)F)cc2-c2ccc3cc4ccccc4cc3c2)cc1 [Compound 47, N-[4-(5-Anthracen-2-yl-3-trifluoromethyl-pyrazol-1-yl)-phenyl]-aminosulfonamide]	2 (≈ 4.15 µM)	2 (≈ 4.15 µM)	2 (≈ 4.15 µM)	2 (≈ 4.15 µM)	11 (≈ 22.8 µM)	–	–	–	–	–	MIC [1]: 8 µg/mL (≈ 16.6 µM); MIC [3]: 16 µg/mL (≈ 33.2 µM); MIC (S. hominis (ATCC 27844)): 2 µg/mL (≈ 4.15 µM)
Cc1ccc(-c2cc(C(F)(F)F)nn2-c2ccc(S(N)(=O)=O)cc2)cc1 [Celecoxib, celecoxib]	–	–	–	–	18 (≈ 47.2 µM)	–	–	–	–	–	decrease in CFU relative to control (S. aureus): 6 log; MIC ([5]; ATCC35984, Table IX, S. epidermidis (ATCC 35984), read-out: MIC): 16 µg/mL (≈ 42 µM); MIC (S. aureus (ATCC 29213); ATCC29213, Table IX, S. aureus (ATCC 29213), read-out: MIC): 32 µg/mL (≈ 83.9 µM)
NS(=O)(=O)Nc1ccc(-n2nc(C(F)(F)F)cc2-c2ccc3c(ccc4ccccc43)c2)cc1 [Compound 36, N-[4-(5-Phenanthren-2-yl-3-trifluoromethyl-pyrazol-1-yl)-phenyl]-aminosulfonamide]	–	–	–	–	12 (≈ 24.9 µM)	≤ 2	≤ 2	1 (≈ 2.07 µM)	12	99.91	MIC [6]: 2 µg/mL (≈ 4.15 µM)
Cc1ccc(-c2cc(C(F)(F)F)nn2-c2ccc(NS(N)(=O)=O)cc2)cc1 [Compound 41, N-[4-(5-p-Tolyl-3-trifluoromethyl-pyrazol-1-yl)-phenyl]-aminosulfonamide]	4 (≈ 10.1 µM)	4 (≈ 10.1 µM)	4 (≈ 10.1 µM)	4 (≈ 10.1 µM)	28 (≈ 70.6 µM)	4 (≈ 10.1 µM)	4 (≈ 10.1 µM)	–	–	–	MIC (S. aureus (ATCC 12598)): 4 µg/mL (≈ 10.1 µM)

Further lines, with some results ahead:

MIC [2] [µg/mL]	MIC (MRSA (SCCmec VT); [7]) [µg/mL]	MIC (MRSA (ATCC 33592)) [µg/mL]	MIC (MRSA (ATCC 49476)) [µg/mL]	IC50 [4] [µg/mL]	MIC [5, 9] [µg/mL]	MIC (S. aureus (ATCC 29213); [10]) [µg/mL]	SMILES	MIC (MRSA (SCCmec VT); [8]) [µg/mL]	Selectivity ratio [4]	reduction in CFU (MRSA ATCC 33592) [%]	other results
–	–	2 (≈ 4.64 µM)	–	12 (≈ 27.8 µM)	≤ 2	≤ 2	NC(=O)c1ccc(-n2nc(C(F)(F)F)cc2-c2c3ccccc3cc3ccccc23)cc1 [Compound 9, 4-(5-Anthracen-9-yl-3-trifluoromethyl-pyrazol-1-yl)-benzamide]	–	–	99.14	dose-dependent effect on cell killing (MRSA ATCC 33592; range of 2×-8×MIC): did not show a dose-dependent effect; MIC (three strains of MRSA): 0.5 to 2 µg/mL (≈ 1.16 to 4.64 µM)
–	–	–	–	20 (≈ 41.5 µM)	–	–	NS(=O)(=O)Nc1ccc(-n2nc(C(F)(F)F)cc2-c2c3ccccc3cc3ccccc23)cc1 [Compound 46, N-[4-(5-Anthracen-9-yl-3-trifluoromethyl-pyrazol-1-yl)-phenyl]-aminosulfonamide]	0.5 (≈ 1.04 µM)	40	99.99	survival of MRSA-infected mice (MRSA 33592; intraperitoneal, 30 mg/kg): improve the survival; survival of MRSA-infected mice (MRSA 33592; oral, 100 mg/kg): improve the survival; classification bactericidal / bacteriostatic (MRSA ATCC 33592; bactericidal = 99.9% reduction in inoculum within 24 h): bactericidal; also recorded: bacteriostatic
